{"source": "patent US5693628A", "about": "“11-benzaldoxime-estra-diene derivatives, methods for their production and pharmaceuticals containing these compounds” (priority 1994, dated 1997)", "key": {"[1]": {"system": "early gravidity in the rat", "assay": "Early abortive effect / inhibition of early gravidity in the rat", "assay_type": "in vivo", "details": "for complete gravidity inhibition % / complete gravidity inhibition N*/N (females not pregnant/inseminated females): empty uteri", "procedure": "Inhibition of early gravidity in the rat\nFemale rats are mated in the pro-oestrus. If semen is found in the vaginal smear on the next day, this day is counted as day 1 (=d1) of the gravidity. Treatment with the test substance or vehicle is applied on d5-d7, autopsy is carried out on d9. The substances are injected subcutaneously in 0.2 ml of vehicle (benzyl benzoate/castor oil 1+4)."}, "[2]": {"system": "uterine weight in cyclic guinea pigs", "assay": "Influence on uterine weight in cyclic guinea pigs", "assay_type": "in vivo, guinea pig", "excerpt": "FIG. 1. is a chart showing a comparison of the influence on uterine weight in cyclic guineau pigs when treated with the antigestagen agents RU 486, a control (the vehicle), and a compound of the present invention, J 867 (as prepared in accordance with Example 1).\nFIG. 1 compares the influence of antigestagen treatment of cyclic guinea pigs on uterine weights for J 867 and RU 486.\nTreatment of female guinea pigs with antigestagen\nTreatment of adult female guinea pigs from day 10 to day 18 of the cycle (autopsy). Administration of the specified doses using subcutaneous osmotic pumps (Type 2 ML1 ALZET). Vehicle: […] propylene glycol/24 hrs."}, "glucocorticoid receptor": {"target": "T1, glucocorticoid receptor (Rattus norvegicus, UniProt P06536)", "T1 construct": "thymus cytosol of the adrenalectomized rat; from tissue; host or cells: thymus (cytosol) of adrenalectomized rat", "T1 sequence (P06536 1-795)": "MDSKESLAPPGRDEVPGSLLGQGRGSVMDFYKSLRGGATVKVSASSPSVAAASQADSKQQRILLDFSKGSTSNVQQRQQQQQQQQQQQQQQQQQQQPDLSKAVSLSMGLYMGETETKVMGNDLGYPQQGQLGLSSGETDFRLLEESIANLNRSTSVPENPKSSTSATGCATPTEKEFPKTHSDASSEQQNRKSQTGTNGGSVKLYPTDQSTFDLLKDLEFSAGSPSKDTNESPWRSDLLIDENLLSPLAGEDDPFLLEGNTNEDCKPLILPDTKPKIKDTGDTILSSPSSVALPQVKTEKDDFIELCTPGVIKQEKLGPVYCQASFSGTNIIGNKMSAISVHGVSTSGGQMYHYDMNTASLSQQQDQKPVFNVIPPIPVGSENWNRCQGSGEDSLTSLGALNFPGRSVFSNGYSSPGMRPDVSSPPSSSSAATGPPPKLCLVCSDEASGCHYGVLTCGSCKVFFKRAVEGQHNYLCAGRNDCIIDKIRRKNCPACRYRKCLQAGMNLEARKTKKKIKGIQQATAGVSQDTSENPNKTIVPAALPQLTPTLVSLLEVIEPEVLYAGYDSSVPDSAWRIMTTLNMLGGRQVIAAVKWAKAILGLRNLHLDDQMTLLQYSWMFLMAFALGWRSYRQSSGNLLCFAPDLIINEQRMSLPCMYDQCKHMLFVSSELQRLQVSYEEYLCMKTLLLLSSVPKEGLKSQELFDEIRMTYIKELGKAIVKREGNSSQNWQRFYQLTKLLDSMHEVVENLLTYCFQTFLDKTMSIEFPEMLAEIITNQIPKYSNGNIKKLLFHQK", "assay": "relative molar bonding affinity to glucocorticoid receptor (competitive bonding)", "assay_type": "binding", "details": "dexamethasone = 100%; thymus cytosol of adrenalectomized rat; 3H-dexamethasone, 20 nM; 18 h, 0-4° C.", "procedure": "Measurement of bonding affinity for receptors\nReceptor bonding affinity was determined by competitive bonding of a specifically binding ^3 H labelled hormone (tracer) and the compound to be tested to receptors in the cytosol from animal target organs. It was tried to obtain receptor saturation and a balanced reaction. The following incubation conditions were selected:\nGlucocorticoid receptor: thymus cytosol of the adrenalectomized rat, thymi kept at -30° C., buffer: TED. Tracer: ^3 H-dexamethasone, 20 nM; reference substance: dexamethasone.\nAfter an incubation period of 18 hours at 0°-4° C., bonded and free steroid was separated by mixing in active carbon/dextrane (1%/0.1%), centrifuging off and measuring the bonded ^3 H activity in the supernatant.\nThe IC50 for the compound to be tested and for the reference substance were determined from measurements in series of concentrations."}, "[3]": {"system": "ZR75/AGP-763 human mammary cell line (CAT induction)", "assay": "Antiglucocorticoid effect: inhibition of dexamethasone-induced CAT in ZR75/AGP-763 cells", "assay_type": "cell-based", "details": "ZR 75/AGP-763; 10^-7 M dexamethasone; wide range of concentrations", "excerpt": "FIG. 2. is a graph showing the antiglucocorticoid effect of J 867 (Example 1) in comparison to RU 486. The graph depicts the inhibition of CAT induction in a human mammary cell line (the ZR75/AGP-763 cell line) which were induced by 10^-7 M dexamethasone. The graph indicates the log molar antagonist concentration in the x-axis versus the maximum CAT induction as a percentage in the y-axis. The results for dexamethasone is shown as dashed lines (- - -), the IC50 is shown in solid line (----), RU 486 is shown as open boxes (.quadrature.), and J 867 is shown with closed boxes (.box-solid.).\nFIG. 2 depicts the antiglucocorticoid effect produced by J 867 in the ZR 75/AGP-763 line of human mammary cells compared with that of RU 486.\nIn this cell line, dexamthasone induces the chloroamphenicol acetyl transferase gene (CAT). This induction is inhibited by antiglucocorticoid substances.\nAntiglucocorticoid effect of J867 in the ZR75/AGP-763 line of human mammary cells\nThe cell culture experiments were carried out in RPMI 1640 added with 10% foetal calf serum (FCS) using an incubator cabinet containing 95% air and 5% CO2 at 37° C. The cells were spread in 60 mm Petri dishes. […] CAT was determined using a Boehringer ELISA according to the instructions for quantitative CAT determination of transfected cells."}, "[4]": {"details": "0.3 mg/animal/day s.c., 5th to 7th day of pregnancy"}, "[5]": {"details": "1.0 mg/animal/day s.c., 5th to 7th day of pregnancy"}, "[6]": {"details": "3.0 mg/animal/day s.c., 5th to 7th day of pregnancy"}}}
{"smiles": "COC[C@]1(OC)CC[C@H]2[C@@H]3CCC4=CC(=O)CCC4=C3[C@@H](c3ccc(C=NO)cc3)C[C@@]21C", "note": "[Example 1, 11β-[4-(hydroximinomethyl)phenyl]-17β-methoxy-17α-methoxymethyl-estra-4,9-diene-3-on]", "values": [{"measurement": "complete gravidity inhibition %", "setting": "[1]; [4]", "value": 0, "unit": "%"}, {"measurement": "complete gravidity inhibition N*/N (females not pregnant/inseminated females)", "setting": "[1]; [4]", "value": "0/5"}, {"measurement": "complete gravidity inhibition %", "setting": "[1]; [5]", "value": 100, "unit": "%"}, {"measurement": "complete gravidity inhibition N*/N (females not pregnant/inseminated females)", "setting": "[1]; [5]", "value": "5/5"}, {"measurement": "complete gravidity inhibition %", "setting": "[1]; [6]", "value": 100, "unit": "%"}, {"measurement": "complete gravidity inhibition N*/N (females not pregnant/inseminated females)", "setting": "[1]; [6]", "value": "5/5"}, {"measurement": "ED 50", "setting": "[1]; s.c., 5th to 7th day of pregnancy, graphic determination", "value": 0.6, "unit": "mg/animal/day"}, {"measurement": "inhibition capability of nidation as compared to RU 486 (factor)", "setting": "[1]; s.c., d5-d7, autopsy d9, factor compared to RU 486", "value": 3}, {"measurement": "inhibition of uterine weights of cyclic guinea pigs, all doses", "setting": "[2]; 1, 3, and 6 mg/24 hrs, s.c. osmotic pump, day 10 to 18 of cycle", "value": "inhibited uterine weights to a statistically significant extent"}, {"measurement": "uterine weights in the anovulatorial cycle in guinea pigs", "setting": "[2]; doses at which RU 486 increases uterine weights, compared with control animals", "value": "significantly reduced uterine weights"}, {"measurement": "relative molar bonding affinity (RBA) to glucocorticoid receptor", "setting": "glucocorticoid receptor", "value": 78, "unit": "%"}, {"measurement": "inhibition of CAT compared with RU 486", "setting": "[3]", "value": "inhibits CAT over a wide range of concentrations to a lesser extent than RU 486"}]}
